Structures are written as SMILES. “And” between values parts separate entries of the source, which are not always exact repeats. Equal entries are not always repeated.

This series can be described thus: solvent given as SMILES.

On to `O=c1oc2c(ccc3cc(O)ccc32)nc1-c1ccccc1`, for which the emission maximum (in c1ccccc1) was 487 nm.

Consider `COc1ccc2c(CC(=O)NN)coc2c1`, for which the emission maximum runs as follows: (in C1CCOC1) 381 nm; (in CC#N) 376 nm; (in CC(C)=O) 396 nm; (in CCCCO) 384 nm; (in CCCO) 396 nm; (in CCO) 374 nm. In addition, the emission maximum was determined as 368 nm (in CCOC(C)=O), 378 nm (in CN(C)C=O), 378 nm (in CO) and 402 nm (in ClCCl).

As to `Cc1ccccc1`, for the setting “in C1CCCCC1”, the emission maximum is listed as 286.62 nm.

Under “in CC#N”, `C[n+]1ccc2c(ccc3c[n+](C)ccc32)c1` returned an emission maximum of 407 nm.

Consider `CC1=NN(c2ccccc2)C(=O)/C1=C/c1cn(-c2ccccc2)nc1-c1ccccc1`, for which the emission maximum runs as follows: (in C1CCOC1) 429 nm; (in C1COCCO1) 407 nm; (in CCO) 427 nm; (in CCOC(C)=O) 422 nm; (in CN(C)C=O) 435 nm; (in CO) 430 nm. Further, the emission maximum was 437 nm (in CS(C)=O), 416 nm (in Cc1ccccc1), 432 nm (in ClC(Cl)Cl) and 436 nm (in ClCCl).

In the case of `Cc1cc(C)c(C2=C3C=C(/C=C/C(=O)OC(C)(C)C)C=[N+]3[B-](F)(F)n3cc(/C=C/C(=O)OC(C)(C)C)cc32)c(C)c1`, under “in ClCCl”, the emission maximum amounted to 610 nm.

On to `F[B-]1(F)OC(c2ccc(C(F)(F)F)cc2)=Cc2c3ccccc3c3ccccc3[n+]21`, for which, where the note is “in ClC(Cl)Cl”, the emission maximum turned out to be 446 nm.

Regarding `N#CC1=CC(c2ccccc2)=CC(C#N)=P1(c1ccccc1)c1ccccc1`, the emission maximum (in ClC(Cl)Cl) amounted to 525 nm.

`C=Cc1cc2ccccc2oc1=O` had an emission maximum (in CC#N) of 413 nm.

Regarding `CC1=CC(C)=[N+]2C1=C(c1ccccc1)c1c(C)cc(C)n1[B-]2(F)F`, the emission maximum runs as follows: (in C1CCOC1) 512 nm and 510 nm; (in CC#N) 508 nm; (in CC(=O)C(C)(C)C) 511 nm; (in CC(C)=O) 509 nm; (in CCCCCC) 511 nm; (in CCOC(C)=O) 510 nm. Besides, the emission maximum is 509 nm and 510 nm (in CO); 516 nm (in Cc1ccccc1); 513 nm (in ClCCl).

As to `c1ccc(-c2nc(-c3ccccc3)nc(-c3ccc(-n4c5ccccc5c5ccc6c(c7ccccc7n6-c6ccccc6)c54)cc3)n2)cc1`, the emission maximum was 466.56 nm and 461 nm (in Cc1ccccc1); 479 nm (in O=P(c1ccccc1)(c1ccccc1)c1ccc2oc3ccc(P(=O)(c4ccccc4)c4ccccc4)cc3c2c1).

`CCCCN(CCCC)c1ccc(/C=C/c2ccc3nc(-c4ccccc4)c(/C=C/c4ccc(N(C)C)cc4)nc3c2)cc1`: the emission maximum runs as follows: (in C1COCCO1) 540 nm; (in CC#N) 650 nm; (in ClCCl) 627 nm.

`Cc1ccc2c(nc3c(=O)n(C)c(=O)nc-3n2C)c1C` showed an emission maximum (in CC#N) of 543 nm.

`c1ccc(-c2nc(-c3ccc(N4CCCC4)cc3)cc(-c3ccc4ccccc4c3)n2)cc1` registered an emission maximum (in ClC(Cl)Cl) of 498 nm.

Consider `Cc1cc(C)n2c1C=[N+]1[N+](=C3C=NC=CN3[B-]1(F)F)[B-]2(F)F`, for which the emission maximum (in ClCCl) amounted to 490 nm.

For the setting “in C1CCOC1”, `Cc1ccc(-c2cnc3nn4ccccc4c3n2)cc1` gave an emission maximum of 450 nm.

Consider `COc1ccc(C2=C/C(=C\c3ccc([N+](=O)[O-])cc3)C(=O)N2CC(C)C)cc1`, for which the emission maximum (in C1COCCO1) turned out to be 616 nm.

As to `Cc1cc(=O)cc(-c2ccc(-c3nc4ccccn4c3NC3CCCCC3)cc2)o1`, the emission maximum (in ClCCl) is reported as 500 nm.

The compound `CN1C(=CC=Cc2nc3nc4ccccc4nc3s2)C(C)(C)c2ccccc21` came in with an emission maximum (in CO) of 623 nm.

Take `Cc1cccc(-c2nc3sc4ccccc4c3s2)c1`: under “in CS(C)=O”, the emission maximum is recorded as 412 nm.

Regarding `CCCN1/C(=C\c2c(-c3ccc(N(C)C)cc3)c(=O)c2=O)C=Cc2ccccc21`, the emission maximum by setting is: (in C1CCCCC1) 428 nm; (in Cc1ccccc1) 435 nm; (in ClCCl) 585 nm.

Take `CN(C)c1cccc2c1ccc1c(=O)oc(-c3ccc(C(F)(F)F)cc3)cc12`: the emission maximum runs as follows: (in CC(C)=O) 611 nm; (in CCCCCCCCO) 585 nm; (in CCCCO) 586 nm; (in CCCO) 591 nm; (in CCO) 602 nm; (in CCOC(C)=O) 578 nm. Also, the emission maximum is given as 614 nm (in CN(C)C=O), 612 nm (in CO) and 538 nm (in ClC(Cl)Cl).

As for `Cc1cc(C)n2c1C=C1c3ccccc3C(c3[nH]c4ccccc4c3C)=[N+]1[B-]2(F)F`, the emission maximum is, setting by setting: (in C1CCOC1) 628 nm; (in CC#N) 623 nm; (in CCCCCC) 626 nm; (in CO) 624 nm; (in Cc1ccccc1) 636 nm; (in ClCCl) 631 nm.

For `CC(=O)OCCOCCN1C(=O)c2cc(NCCOCCO)c3c4c(cc(NCCOCCO)c(c24)C1=O)C(=O)N(CCOCCOC(C)=O)C3=O`, the emission maximum (in CO) is reported as 641 nm, the emission maximum (in ClC(Cl)Cl) amounted to 640 nm and the emission maximum (in O) was 657 nm.

As for `CC(C)(C)c1ccc2c3c(c4ccc(C(C)(C)C)cc4c2c1)=[N+]1C(=C(c2ccccc2)c2c(Br)c4c5ccc(C(C)(C)C)cc5c5cc(C(C)(C)C)ccc5c4n2[B-]1(F)F)C=3Br`, the emission maximum is, setting by setting: (in C1CCCCC1) 711 nm; (in C1CCOC1) 715 nm; (in CC#N) 714 nm; (in Cc1ccccc1) 715 nm; (in ClCCl) 717 nm.

`O=C1CC(c2ccccc2)c2c(c3ccccc3c3nc4ccccc4nc23)O1` (stereo not drawn) yielded an emission maximum (in ClC(Cl)Cl) of 431 nm.

For `COc1cc(/C=C/c2ccccn2)c(OC)cc1C=O`, the emission maximum is listed as 446 nm (in C1CCOC1); 458 nm (in CC#N); 456 nm (in CN(C)C=O); 444 nm (in Cc1ccccc1); 455 nm (in ClCCl).

On to `O=S1(=O)c2ccccc2Oc2cc(N3c4ccccc4C4(c5ccccc53)c3ccccc3N(c3ccc5c(c3)Oc3ccccc3S5(=O)=O)c3ccccc34)ccc21`, for which the emission maximum reads like this: (in Cc1ccccc1) 439.83 nm; (in O=P(c1ccccc1)(c1ccccc1)c1ccccc1Oc1ccccc1P(=O)(c1ccccc1)c1ccccc1) 464.9 nm.

Compound `Fc1ccc(C2=NC(c3ccccc3)C(N(c3ccccc3)c3ccccc3)S2)cc1` (stereo not drawn) registered an emission maximum (in ClC(Cl)Cl) of 461 nm.

In the case of `CC/[NH+]=c1\cc2oc3cc(NCCO)c4ccccc4c3nc-2cc1C`, the emission maximum runs as follows: (in CCO) 643 nm; (in O) 651 nm.

`N#Cc1ccc(-n2c(-c3ccc(-c4ccc(N(c5ccccc5)c5ccccc5)cc4)s3)nc3c4ccccc4c4ccccc4c32)c2ccccc12`: under “in ClCCl”, the emission maximum is given as 408 nm.

With `CN(C)c1ccc2c3c(ccc2c1)CCCC3=O`, the emission maximum is, setting by setting: (in C1CCCCC1) 449 nm; (in CC#N) 523 nm; (in CC(C)O) 520 nm; (in CCC(C)=O) 517 nm; (in CCO) 495 nm; (in CCOC(C)=O) 506 nm. This compound showed an emission maximum (in CS(C)=O) of 538 nm, an emission maximum (in Cc1ccccc1) of 478 nm, an emission maximum (in ClCCl) of 511 nm and an emission maximum (in Clc1ccccc1) of 498 nm.

Turning to `Cc1cccc(C)c1/C=C/c1nc(N2CCOCC2)c2c([n+]1[O-])CCCC2`, the emission maximum (in ClCCl) amounted to 536 nm.

The values above are taken from the Deep4Chem optical property database.
